Source: US20050203013A1, “Methods for inhibiting vascular permeability” (priority 2002, published 2005)

Key:
Ca2+ influx in HMVEC-d = test: Intracellular Ca2+ release; assay type: cell-based, Human
Experimental: For detaching cells, serum-starved HMVEC-d were incubated with 4 ml of collagenase solution (0.2 mg/ml collagenase, 0.2 mg/ml soybean trypsin inhibitor, 1 mg/ml BSA, and 2 mM EDTA in PBS) at 37° C. for 30 minutes. Cell pellets were washed with 2 ml of Ca^2+ buffer (5 mM KCl, 140 mM NaCl, 1 mM CaCl2, 1 mM MgCl2, 5.6 mM glucose, 0.1% BSA, 0.25 mM sulfinpyrazone, and 10 mM HEPEs, pH 7.5) and then resuspended in 2 ml of the same buffer containing 5 ng/ml TNP-470. The cells were incubated at 37° C. for 2 hours in suspension. During the last 30 minutes of incubation, 1 μg/ml Fura-2-AM Fura 2-AM (acetoxymethyl ester derivative of Fura 2) and 0.02% pluronic F-127 were added to the suspension. Cells (106) were collected and resuspended in 2 ml Ca^2+ buffer for VPF/VEGF (10 ng/ml), PAF (20 nM), or histamine ([…]) stimulation. Intracellular Ca^2+ concentrations were measured with the DeltaScan Illumination System (Photon Technology International Inc.) using Felix software, while rocking the tubes.

MAPK = test: Phosphorylation of MAPK; assay type: cell-based, Human; settings: HMVEC-d
Experimental: Serum-starved HMVEC-d were treated with 5 ng/ml TNP-470 at 37° C. for 2 hours, and then stimulated with 10 ng/ml of VEGF for 5 minutes. Stimulation was stopped by adding cold PBS. Cells were lysed with cold radioimmune precipitation buffer. Cellular extracts (20 μg) were immunoblotted with an antibody against phosphorylated MAPK (p-MAPK) (Cell Signaling Technology Inc.). The blot was stripped and reprobed with an antibody against MAPK to confirm equal protein loading.

ear swelling = test: Delayed-type hypersensitivity reaction elicited by oxazolone; assay type: in vivo, C57B1/6J mice
Experimental: Delayed-type hypersensitivity (DTH) reactions were induced in the skin of 8-week-old C57B1/6J male mice (n=5) as previously described (Dvorak et al., 1984). In order to induce an immune response to oxazolone, mice were first sensitized by topical application of 2% oxazolone solution in vehicle, acetone: olive oil (4:1 vol/vol), to the shaved abdomen (50 μl) and to each paw (5 μl). Mice were treated with TNP-470 (30 mg/kg s.c.) for three days prior to the second challenge with oxazolone. Five days after sensitization, the right ears were challenged by topical application of 10 μl of a 1% oxazolone solution; the left ears were treated with vehicle alone. Ear thickness was then measured daily for up to 7 days as a measure of inflammation intensity (Gad et al., 1986). Statistical analysis was performed using the unpaired Student t test. Some mice from each experimental group were euthanized 24 hours after oxazolone challenge (n=5 per group). One half of each ear was fixed in 10% formalin and was processed, embedded in paraffin and stained for H & E. The other half was embedded in OCT compound (Sakura Finetek, Torrance, Calif.) and snap-frozen in liquid nitrogen. Immunohistochemical staining was performed on 5 μm cryostat sections using a Vecstatin avidin-biotin detection system (Vector Labs, Burlingame, Calif.) with rat monoclonal antibodies against mouse CD31 (dilution 1:250, Pharmingen, San Diego, Calif.) according to the manufacturers' instructions.

HMVEC-d cells = test: Cell migration assay (modified Boyden chamber); assay type: cell-based, Human
Experimental: The motility response of HMVEC-d cells was assayed using a modified Boyden chamber. Cells were plated in T75-cm^2 flasks at 0.5×10^6 cells per flask and allowed to grow for 48 hours (˜70% confluent) prior to the migration assay. To facilitate cell adhesion, the upper membrane of a transwell (8 μm pore; Costar) was coated with fibronectin (10 μg/ml; Becton Dickinson) overnight at 4° C. Coated membranes were rinsed with PBS and allowed to air dry immediately before use. Cells were detached by trypsinization, treated with trypsinization neutralization solution (Clonetics), and resuspended at a final concentration of […] in serum-free EBM-2 containing 0.1% BSA or free or conjugated TNP470 at equivalent concentrations of 1 ng/ml. Cells (50,000 in 100 μl) were added to the upper chamber of the transwell. Following a 2 hours incubation, EBM-2 or EBM-2 supplemented with VPF/VEGF (5 ng/ml) was added to the lower chamber and cells were allowed to migrate toward the bottom chamber for 4 hours in a humidified incubator containing 5% CO2. […] The number of migrated cells was measured using microscopy (three fields from each membrane were captured using a 10× objective), and images were captured with a CCD camera using SPOT software. Total migration per membrane was quantified from the captured images using Scion Image software (National Institutes of Health). […]

VEGFR-2 = VEGFR-2 phosphorylation in HMVEC-d; assay type: cell-based, Human; settings: 5 ng/ml for 2 hours
Experimental: Serum-starved (0.1% FBS in EBM-2 media for 24 hours) HMVEC-d or HUVEC were treated with 5 ng/ml TNP-470 and HPMA copolymer-TNP-470 at 37° C. for 2 hours, and then stimulated with 10 ng/ml of VEGF for 5 minutes. Stimulation was stopped by adding cold PBS. […] After washing the beads with precipitation buffer, immunoprecipitates were resuspended in 2× SDS sample buffer for Western blot analysis with an antibody against phosphorylated tyrosine (pTyr).

[1] = test system: U87 glioblastoma tumor blood vessel permeability; test: Miles assay on tumor-bearing mice (Example 3), U87; parameters: species or system SCID mice; settings: mouse, in vivo
Experimental: Female SCID mice ( 8 weeks, 20 g) were inoculated s.c. with 5×10^6 viable U87 glioblastoma cells or viable A2058 human melanoma cells or BXPC3 pancreas adenocarcinoma cells. Female nu/nu mice were inoculated with MCF-7 or MDA-MB-231 breast carcinoma cells in the mammary fat pad. C57B1/6J were inoculated with LLC. […] blue dye was then injected i.v. and extravasation of dye assessed as above. Also, blood was withdrawn to measure VPF/VEGF levels in plasma and in tumors (n=5 from each group). Tumors (n=5 per group) were dissected, weighed and cut in half. Half of the tumor was placed in formalin and half was analyzed for VPF/VEGF protein by ELISA (see below). Formalin fixed tumors were processed for sectioning and staining with H & E, CD31, smooth muscle actin (SMA) and proliferating cell nuclear antigen (PCNA) according to the manufacturers' instructions.

`CO[C@@H]1[C@H](OC(=O)NC(=O)CCl)CC[C@]2(CO2)[C@H]1[C@@]1(C)O[C@@H]1CC=C(C)C` [TNP-470] was tested, and the “Ca2+ influx induced by PAF” value (Ca2+ influx in HMVEC-d) was “decreased”, the “Ca2+ influx induced by VPF/VEGF” value (Ca2+ influx in HMVEC-d) was “decreased” and the “Ca2+ influx induced by histamine” value (Ca2+ influx in HMVEC-d) was “decreased”. For the same compound, the “VPF/VEGF-induced MAPK phosphorylation” value (MAPK) was “inhibited”, the “inflammatory response (histology)” value (ear swelling; 24 hours after challenge) was “dramatically reduced” and the “ear swelling and erythema vs control mice” value (ear swelling; 24 hours after oxazolone challenge, P<0.01) was “significantly reduced ear swelling and erythema”. The “difference in ear swelling vs control mice” value (ear swelling; 48 hours, P<0.01) was “persisted”, the “difference in ear swelling vs control mice” value (ear swelling; 4 days) was “differences had disappeared” and the inhibition at 0.001 µg/mL (HMVEC-d cells; Homo sapiens, 1 ng/ml, 2 hours pretreatment, 4 hours migration, read-out: inhibition of chemotactic migration response to VPF/VEGF) was 68%. For the same compound, the “inhibition of basal migration” value (HMVEC-d cells; absence of VPF/VEGF) was 70%, the “VPF/VEGF-induced phosphorylation of VEGFR-2” value (VEGFR-2) was “significantly reduced” and the “Evan's blue extravasation into U87 glioblastomas” value [1] was “did not inhibit”.
